Assay results from patent US6413935B1, “Induction of immune response against desired determinants” (priority 1993, dated 2002).
Like-named read-outs stand apart in the source and are kept apart here. Non-standard residues stand in square brackets, D forms with d. Residues, ends and D or L forms follow the SMILES beside them. Cha = N[C@@H](CC1CCCCC1)C(=O)O

How the values were obtained:
IE^k = format: binding, mouse; details: read-out: Capacity to bind purified IE^k, IC50
C57BL/6J (H-2^b+) mice = details: mouse, in vivo
IA^d = molecular target: T1, IA^d (Mus musculus, UniProt P01921+P04228); test: biochemical; format: binding; details: Table III; read-out: Capacity to bind purified IA^d, IC50
T1 construct: Various cell lines were used as sources of purified human and mouse class II molecules; endogenous in cells; host or cells: A20
T1 sequence (P04228 24-256): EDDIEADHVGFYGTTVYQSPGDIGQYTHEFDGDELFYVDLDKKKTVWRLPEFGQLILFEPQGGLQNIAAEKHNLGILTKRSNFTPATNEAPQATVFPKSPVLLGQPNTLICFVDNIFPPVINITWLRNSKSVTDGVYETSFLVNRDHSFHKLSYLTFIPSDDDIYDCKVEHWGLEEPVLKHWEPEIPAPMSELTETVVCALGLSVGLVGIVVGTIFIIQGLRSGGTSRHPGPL
T1 sequence (P01921 28-265): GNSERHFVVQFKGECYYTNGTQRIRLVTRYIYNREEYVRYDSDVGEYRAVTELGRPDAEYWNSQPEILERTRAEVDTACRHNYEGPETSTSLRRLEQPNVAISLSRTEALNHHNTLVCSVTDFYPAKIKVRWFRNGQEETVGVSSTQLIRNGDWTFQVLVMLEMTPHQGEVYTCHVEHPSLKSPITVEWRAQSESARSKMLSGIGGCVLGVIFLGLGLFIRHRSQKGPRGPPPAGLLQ

IE^d = molecular target: T2, IE^d (Mus musculus, UniProt P01904+P01915); test: biochemical; format: binding
T2 construct: Various cell lines were used as sources of purified human and mouse class II molecules; endogenous in cells; host or cells: A20
T2 sequence (P01904 26-255): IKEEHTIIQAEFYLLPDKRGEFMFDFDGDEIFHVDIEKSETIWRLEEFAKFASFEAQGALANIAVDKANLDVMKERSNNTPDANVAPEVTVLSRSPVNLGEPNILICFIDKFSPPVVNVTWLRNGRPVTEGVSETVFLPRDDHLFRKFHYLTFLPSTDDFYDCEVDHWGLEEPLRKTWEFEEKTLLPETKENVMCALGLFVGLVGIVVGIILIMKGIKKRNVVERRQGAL
T2 sequence (P01915 27-264 limits assumed): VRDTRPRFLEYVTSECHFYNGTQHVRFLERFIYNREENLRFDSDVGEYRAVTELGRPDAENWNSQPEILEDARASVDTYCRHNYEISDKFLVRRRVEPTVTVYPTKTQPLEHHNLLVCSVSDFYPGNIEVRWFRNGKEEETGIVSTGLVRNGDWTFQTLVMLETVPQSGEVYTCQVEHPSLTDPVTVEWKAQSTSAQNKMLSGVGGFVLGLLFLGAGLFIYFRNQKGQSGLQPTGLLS

IA^k = molecular target: T3, IA^k (Mus musculus, UniProt P01910+P06343); test: biochemical; format: binding; details: Table III; read-out: Capacity to bind purified IA^k, IC50
T3 construct: Various cell lines were used as sources of purified human and mouse class II molecules; endogenous in cells; host or cells: CH12

IA^b = molecular target: T4, IA^b (Mus musculus, UniProt P14434+P14483); test: biochemical; format: binding
T4 construct: Various cell lines were used as sources of purified human and mouse class II molecules; endogenous in cells; host or cells: DB27.4
T4 sequence (P14434 24-256): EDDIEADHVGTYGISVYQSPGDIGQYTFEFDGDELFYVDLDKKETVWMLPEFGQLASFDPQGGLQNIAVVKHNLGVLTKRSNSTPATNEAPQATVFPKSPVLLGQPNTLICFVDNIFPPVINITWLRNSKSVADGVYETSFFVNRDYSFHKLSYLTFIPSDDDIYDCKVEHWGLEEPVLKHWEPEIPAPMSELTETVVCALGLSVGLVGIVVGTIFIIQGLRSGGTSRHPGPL
T4 sequence (P14483 28-265): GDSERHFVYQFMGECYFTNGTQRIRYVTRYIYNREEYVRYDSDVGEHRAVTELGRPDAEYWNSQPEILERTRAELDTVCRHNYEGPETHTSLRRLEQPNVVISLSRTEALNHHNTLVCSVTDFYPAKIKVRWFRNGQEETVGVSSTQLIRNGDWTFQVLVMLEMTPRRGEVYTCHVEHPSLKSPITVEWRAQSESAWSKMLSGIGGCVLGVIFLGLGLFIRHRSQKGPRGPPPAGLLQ

IA^s = molecular target: T5, IA^s (Mus musculus, UniProt P06345+P14437); test: biochemical; format: binding; details: Table III; read-out: Capacity to bind purified IA^s, IC50
T5 construct: Various cell lines were used as sources of purified human and mouse class II molecules; endogenous in cells; host or cells: LS102.9
T5 sequence (P14437 1-233): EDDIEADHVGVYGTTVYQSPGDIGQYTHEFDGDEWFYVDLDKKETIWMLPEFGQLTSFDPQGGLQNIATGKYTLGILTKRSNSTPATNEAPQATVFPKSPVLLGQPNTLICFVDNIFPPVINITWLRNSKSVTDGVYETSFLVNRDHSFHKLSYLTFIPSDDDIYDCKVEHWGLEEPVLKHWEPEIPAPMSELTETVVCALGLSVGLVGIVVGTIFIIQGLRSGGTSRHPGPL
T5 sequence (P06345 28-263): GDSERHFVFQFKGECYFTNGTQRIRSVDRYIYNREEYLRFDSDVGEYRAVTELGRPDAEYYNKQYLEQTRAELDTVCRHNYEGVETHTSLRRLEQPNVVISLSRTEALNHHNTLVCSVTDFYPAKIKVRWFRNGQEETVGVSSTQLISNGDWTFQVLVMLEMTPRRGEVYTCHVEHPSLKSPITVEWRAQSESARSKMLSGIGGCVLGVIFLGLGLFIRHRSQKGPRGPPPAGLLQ

DR7 = details: for IC50: read-out: PADRE Class II Binding Affinities DR7
DRw53 = DRw53 (Homo sapiens, UniProt P01903+P13762)
DR3 = DR3 (Homo sapiens, UniProt P01903+P01911, A100K/A102G/A103R/A169T/F55Y/I96L/K41T/L162R/M171V/P40S/Q125H/Q178H/Q39Y/R42S/S66N/T106N/T262R/W38E/Y61H); details: Table VIII A
human PBMC T cell lines = format: cell-based
[1] = Table III, read-out: Capacity to bind purified IE^d, IC50

T3 sequence (P01910 24-256): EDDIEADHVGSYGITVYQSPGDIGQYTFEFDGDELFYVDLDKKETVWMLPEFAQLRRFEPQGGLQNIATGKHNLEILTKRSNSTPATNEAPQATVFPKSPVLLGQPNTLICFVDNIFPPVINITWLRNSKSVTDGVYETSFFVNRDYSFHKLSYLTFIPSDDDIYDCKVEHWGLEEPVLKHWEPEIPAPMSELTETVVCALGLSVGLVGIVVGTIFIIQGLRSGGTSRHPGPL
T3 sequence (P06343 28-263): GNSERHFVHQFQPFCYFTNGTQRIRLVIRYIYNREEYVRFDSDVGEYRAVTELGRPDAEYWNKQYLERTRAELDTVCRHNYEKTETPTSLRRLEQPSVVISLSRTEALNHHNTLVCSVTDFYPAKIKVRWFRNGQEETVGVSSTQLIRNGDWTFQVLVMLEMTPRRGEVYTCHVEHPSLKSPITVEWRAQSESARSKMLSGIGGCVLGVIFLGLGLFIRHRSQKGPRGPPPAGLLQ
DRw53, sequence (P01903 26-254): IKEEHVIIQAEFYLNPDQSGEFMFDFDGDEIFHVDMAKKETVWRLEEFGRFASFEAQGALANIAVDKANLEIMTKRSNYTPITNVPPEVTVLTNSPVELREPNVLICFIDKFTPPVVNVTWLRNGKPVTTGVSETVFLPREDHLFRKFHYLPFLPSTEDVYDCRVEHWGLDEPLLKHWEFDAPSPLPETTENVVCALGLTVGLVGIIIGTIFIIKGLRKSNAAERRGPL
DRw53, sequence (P13762 30-266): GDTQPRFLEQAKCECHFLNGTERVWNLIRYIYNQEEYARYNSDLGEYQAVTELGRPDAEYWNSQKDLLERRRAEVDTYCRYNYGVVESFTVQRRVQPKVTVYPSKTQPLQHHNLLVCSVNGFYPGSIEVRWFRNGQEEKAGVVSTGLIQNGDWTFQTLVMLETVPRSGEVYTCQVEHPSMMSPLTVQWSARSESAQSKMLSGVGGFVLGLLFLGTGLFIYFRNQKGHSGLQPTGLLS
DR3, sequence (P01903 26-254): as the sequence (P01903 26-254) above
DR3, sequence (P01911 30-266 with the stated changes): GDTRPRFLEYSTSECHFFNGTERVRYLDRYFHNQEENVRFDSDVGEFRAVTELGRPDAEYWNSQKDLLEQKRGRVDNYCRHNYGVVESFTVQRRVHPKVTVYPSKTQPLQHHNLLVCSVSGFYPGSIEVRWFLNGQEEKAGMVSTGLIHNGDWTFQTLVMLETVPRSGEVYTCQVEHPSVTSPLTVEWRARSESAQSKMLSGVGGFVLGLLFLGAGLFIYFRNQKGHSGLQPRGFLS

aKFVAAWTLKAAa [Peptide 1024.03]
IC50 (IE^k): 3500 nM | IC50 (DR5; read-out: Binding capacity DR5, IC50): 18 nM | Effective immunizing dose (C57BL/6J (H-2^b+) mice): 0.05 μg/mouse | IC50 (DQ3.1; read-out: Capacity to bind purified DQ3.1, IC50): 23 nM

CC[C@H](C)[C@H](NC(=O)[C@H](C)NC(=O)[C@H](CCCCN)NC(=O)[C@H](CC(C)C)NC(=O)[C@H](CCCNC(=N)N)NC(=O)[C@H](CCCNC(=N)N)NC(=O)[C@H](C)NC(=O)[C@H](CC(=O)O)NC(=O)[C@H](CCC(=O)O)NC(=O)[C@H](CC(C)C)NC(=O)[C@@H](N)Cc1ccc(O)cc1)C(=O)N[C@@H](Cc1ccc(O)cc1)C(=O)N[C@@H](CCC(=O)O)C(=O)N[C@@H](CCCCN)C(=O)N[C@@H](CCCCN)C(=O)N[C@@H](CCCCN)C(=O)O [Iambda rep 12-26]
IC50 (IA^d): 1100 nM | IC50 (IE^d; Allele IEd, read-out: Avg. IC50 of assay standard): 170 nM | IC50 (IA^k): > 10000 nM | IC50 (IA^b): > 10000 nM | IC50 (IA^s): > 10000 nM

CC(C)C[C@H](NC(=O)[C@@H](NC(=O)[C@H](C)NC(=O)[C@H](CCC(=O)O)NC(=O)[C@H](C)NC(=O)[C@H](C)NC(=O)[C@H](CC1CCCCC1)NC(=O)[C@H](C)NC(=O)[C@@H](C)N)[C@@H](C)O)C(=O)N[C@@H](CCCCN)C(=O)N[C@@H](C)C(=O)N[C@@H](C)C(=O)N[C@H](C)C(N)=O [Peptide 906.19]
IC50 (DR5; read-out: PADRE Class II Binding Affinities DR5): 6.5 nM | PADRE Class II Binding Affinities DR7 (DR7): DR7 reactivity was lost | IC50 (DR7): 250000 nM | Increase in DR53 reactivity (DRw53): 20 fold

CC[C@H](C)[C@H](NC(=O)CNC(=O)[C@H](Cc1ccc(O)cc1)NC(=O)[C@H](CC(=O)O)NC(=O)[C@@H](NC(=O)[C@H](CO)NC(=O)CNC(=O)[C@H](CC(=O)O)NC(=O)[C@@H](NC(=O)[C@@H](N)CC(N)=O)[C@@H](C)O)[C@@H](C)O)C(=O)N[C@@H](CC(C)C)C(=O)N[C@@H](CCC(N)=O)C(=O)N[C@H](C(=O)N[C@@H](CC(N)=O)C(=O)N[C@@H](CO)C(=O)N[C@@H](CCCNC(=N)N)C(=O)O)[C@@H](C)CC [HEL46-61]
IC50 (IA^d): 1220 nM | IC50 (IE^d; [1]): 8500 nM | IC50 (IA^k): 20 nM | IC50 (IA^b): 7000 nM | IC50 (IA^s): > 10000 nM

CC(C)C[C@H](NC(=O)[C@@H](NC(=O)[C@H](C)NC(=O)[C@H](CCC(N)=O)NC(=O)[C@H](C)NC(=O)[C@H](C)NC(=O)[C@H](CC1CCCCC1)NC(=O)[C@H](C)NC(=O)[C@@H](C)N)[C@@H](C)O)C(=O)N[C@@H](CCCCN)C(=O)N[C@@H](C)C(=O)N[C@@H](C)C(=O)N[C@H](C)C(N)=O [Peptide 906.20] (H-[dA]A[Cha]AAQATLKAA[dA]-NH2; N-terminus and C-terminus assumed)
IC50 (DR5; read-out: PADRE Class II Binding Affinities DR5, Table VIII A): 4.1 nM | PADRE Class II Binding Affinities DR3 (DR3): loss of DR3 binding | IC50 (DR7; Table VIII A): 2500 nM | Loss of DR7 binding reactivity (DR7; relative to parent 760.57): 30 fold | IC50 (DQ3.1; read-out: PADRE Class II Binding Affinities, Table VIII A): 652 nM

CC[C@H](C)[C@H](NC(=O)[C@@H]1CCCN1C(=O)[C@H](C)NC(=O)[C@H](CC(N)=O)NC(=O)[C@@H]1CCCN1C(=O)[C@@H]1CCCN1C(=O)[C@H](CCCNC(=N)N)NC(=O)[C@H](Cc1ccc(O)cc1)NC(=O)[C@H](C)NC(=O)[C@@H]1CCCN1C(=O)[C@@H]1CCCN1C(=O)[C@@H](N)[C@@H](C)O)C(=O)N[C@@H](CC(C)C)C(=O)O [HBVc 128-140, reference compound]
IC50 (IE^k; Table III): > 10000 nM

CC(C)C[C@H](NC(=O)[C@@H](NC(=O)[C@H](Cc1c[nH]c2ccccc12)NC(=O)[C@H](C)NC(=O)[C@H](C)NC(=O)[C@@H](NC(=O)[C@H](CC1CCCCC1)NC(=O)[C@H](CCCCN)NC(=O)[C@@H](C)N)C(C)C)[C@@H](C)O)C(=O)N[C@@H](CCCCN)C(=O)N[C@@H](C)C(=O)N[C@@H](C)C(=O)N[C@H](C)C(N)=O [Peptide 965.10]
IC50 (IE^k; Table III): 326 nM | Effective immunizing dose (C57BL/6J (H-2^b+) mice): 0.05 μg/mouse | Donors with significant (>10,000 cpm) T cell response / donors tested, second stimulation (human PBMC T cell lines): 9/12 and all 5 individuals | Donors with significant (>10,000 cpm) T cell response / donors tested, third stimulation (human PBMC T cell lines): 11 of 12 and all 5 individuals

CC(C)C[C@H](NC(=O)[C@H](Cc1c[nH]c2ccccc12)NC(=O)[C@H](CCCCN)NC(=O)CNC(=O)[C@H](CC(C)C)NC(=O)[C@H](CO)NC(=O)[C@@H](N)Cc1c[nH]cn1)C(=O)NCC(=O)N[C@@H](Cc1c[nH]cn1)C(=O)N1CCC[C@H]1C(=O)N[C@@H](CC(=O)O)C(=O)N[C@@H](CCCCN)C(=O)N[C@@H](Cc1ccccc1)C(=O)O [PLP 139-151]
IC50 (IA^d): > 10000 nM | IC50 (IE^d; [1]): > 10000 nM | IC50 (IA^k): > 10000 nM | IC50 (IA^b): > 3100 nM | IC50 (IA^s): 86 nM

CC[C@H](C)[C@H](NC(=O)CNC(=O)[C@@H](NC(=O)[C@H](Cc1ccccc1)NC(=O)[C@H](CCCCN)NC(=O)[C@H](CO)NC(=O)[C@H](CC(N)=O)NC(=O)[C@H](C)NC(=O)[C@H](CCCCN)NC(=O)[C@@H](NC(=O)[C@H](Cc1ccc(O)cc1)NC(=O)[C@@H](N)CCC(N)=O)[C@@H](C)CC)[C@@H](C)CC)C(=O)N[C@H](C(=O)N[C@@H](CCC(=O)O)C(=O)O)[C@@H](C)O [Tet Tox 830-843, reference compound]
T cell proliferative response of primed lymph node cells (C57BL/6J (H-2^b+) mice; sc): unable to generate a specific T cell proliferative response | Donors with significant (>10,000 cpm) T cell response / donors tested, second stimulation (human PBMC T cell lines): 3/12 | Donors with significant (>10,000 cpm) T cell response / donors tested, third stimulation (human PBMC T cell lines): 7/12 | Capacity to bind purified IA^b, IC50 (IA^b): did not bind IA^b appreciably
